Results from a melting point compilation (Tetko et al.; mined from patent text by program, amines drawn as free bases though some values may be those of a salt).

| SMILES | melting point |
| --- | --- |
| CN1CC(CCCl)Oc2ccc(Br)cc2C1=O (stereo unspecified) | 92 to 94 °C |
| COc1ccccc1N1CC(=O)Nc2c(C(N)=O)nc(-c3cccc(O)c3)nc21 | 336 to 338 °C |
| O=C(O)Cc1ccc(OCCNC(=O)C2Cc3ccccc3N2S(=O)(=O)c2ccc(-c3cccc(C(F)(F)F)c3)cc2)c(Cl)c1 (stereo unspecified) | 96 °C |
| CCCCCCCCCCCCc1cc(C(=O)O)c(C)o1 | 70 to 73 °C |
| CCC1(CC)OC(=O)Nc2ccc(Br)cc21 | 150 to 152 °C |
| c1ccc(-c2ccc3[nH]c4c(c3c2)CCNCC4)cc1 | > 250 °C |
| COCCOc1ccc(/C=C/C(=O)NS(=O)(=O)c2cccc(Cl)c2)c(Oc2ncc(C(F)(F)F)cc2Cl)c1 | 157 to 158 °C |
| C=Cc1ccc(CN2C(=O)c3ccccc3C2=O)c(Cl)c1 | 141 to 143 °C |
| CC(=O)Oc1ccc(Nc2nc(N)ncc2Oc2ccc(Cl)cc2)cc1 | 132 to 133 °C |
| O=C(O)CCCC1CCCNC1 (stereo unspecified) | 208 to 210 °C |
| COc1cc(Oc2cccc3c2NC(=O)C3)cc(OC)c1OC | 170 to 171 °C |
| NS(=O)(=O)c1ccc(C2CCN(c3ccncc3)CC2)cc1 | 295 °C |
| O=NN1CCN(c2ccc(Cl)cc2)C1=O | 154 to 156 °C |
| CCC(N)(CC)Cc1c[nH]c2ccccc12 | 92 to 94 °C |
| CC(COc1ccc(CC2SC(=O)NC2=O)cc1)NCC(O)CSc1ccccc1 (stereo unspecified) | 176 to 177 °C |
| O=C(OC(c1ccccc1)c1ccccc1)C(C1CC(Cl)=NO1)N1C(=O)c2ccccc2C1=O (stereo unspecified) | 178 to 179 °C |
| CCCCCCCCCCCCCCCC(=O)NS(=O)(=O)CCCC(=O)O | 156 to 157 °C |
| CC(=O)Nc1ccc2c(c1)OCO2 | 138 to 139 °C |
| NS(=O)(=O)c1cccc(N/C=C2\C(=O)Nc3ccccc32)c1 | > 250 °C |
| CC(Cn1ccc(C(F)(F)F)n1)n1nnc2cc3c(=O)n(C(C)Cn4ncnn4)nnc3cc2c1=O (stereo unspecified) | 95 to 97 °C |
| CC(=O)Oc1ccccc1C=C1CCCc2cc(C)cnc21 | 85 to 87 °C |
| CS(=O)(=O)Nc1ccc(F)c(C(=O)O)c1 | 203 to 205 °C |
| O=C(O)COc1cc(Cl)ccc1C(=O)NCc1nc2cc(C(F)(F)F)ccc2s1 | 225 to 227 °C |
| Cc1cc(O)ccc1NCCCCCCBr | 142 to 144 °C |
| O=c1[nH]nc2ccc(OCCCN3CCC(OC(c4ccccc4)c4ccccc4)CC3)nn12 | 209 to 211 °C |
| Cc1ccc(-c2cc(=S)ss2)nn1 | 242 °C |

| SMILES | melting point |
| --- | --- |
| COc1ccc2cc([C@H](C)C(=O)SCCCCO[N+](=O)[O-])ccc2c1 | 30 to 35 °C |
| Brc1ccc(C=Cc2cccc3ccccc23)cc1 | 106 °C |
| O=C(C=Cc1cccc(Br)c1)c1ccc(OC2CCCCO2)cc1 (stereo unspecified) | 166 to 168 °C |
| Cc1nc2cccc3n(CCCCCNS(=O)(=O)CC(F)(F)F)c(=O)c1n23 | 143 to 145 °C |
| Cc1cccc(NC(=O)CC23CC4CC(CC(C4)C2)C3)c1C | 170 °C |
| CC1CCC2C(=O)N(NC(=O)CCc3cc(C(C)(C)C)c(O)c(C(C)(C)C)c3)C(=O)C2C1 (stereo unspecified) | 87 to 92 °C |
| COc1ccc(NCCCOc2ccc3ccccc3c2)cc1 | 110 °C |
| CN1C(=O)N(Cc2cc(C(F)(F)F)cc(C(F)(F)F)c2)CC1(CCO)c1ccc(Cl)c(Cl)c1 (stereo unspecified) | 96 °C |
| C=CCC1COC(CC)(CC(=O)OC)c2[nH]c3c(CC)cccc3c21 (stereo unspecified) | 92 to 93 °C |
| COc1cc(OC)nc(C2(C#N)OC(=O)c3c(Cl)cccc32)n1 (stereo unspecified) | 159 to 161 °C |
| COc1cccc(C(=O)N(C(=O)OCCl)N(C(=O)c2cc(C)cc(C)c2)C(C)(C)C)c1C | 117 to 119 °C |
| c1ccc(CCc2cc3cccnc3[nH]2)cc1 | 157 to 158 °C |
| Cn1cc(-c2cccc(F)c2)c(=O)c(-c2cccc(C(F)(F)F)c2)c1 | 94 to 96 °C |
| CCC1(CCOC2CCCCO2)C(=O)NNC1=O (stereo unspecified) | 188 to 191 °C |
| O=C(C(Cl)Cl)N1CCN(c2ccc([N+](=O)[O-])cc2)CC1 | 155 °C |
| C[C@@H](n1cnn(-c2ccc(OCC(F)(F)C(F)F)cc2)c1=O)[C@@]1(c2ccc(F)cc2F)CO1 | 116 to 117 °C |
| CNC(=O)c1ccc(-c2ccc3cnc(Nc4ccc(N5CCC(N6CCN(C)CC6)CC5)cc4OC)nn23)cc1 | 112 to 114 °C |
| Cc1ccc(C(=O)c2c(Cl)cc(Cl)cc2Cl)cc1C(C)c1ccc(=O)[nH]n1 (stereo unspecified) | 221 to 222 °C |
| C[C@H]([C@](O)(Cn1cncn1)c1ccc(F)cc1F)S(=O)(=O)N1CCN(Cc2nncn2C)CC1 | 210 to 211 °C |
| CCCCc1cn2nc3c(c(=O)n(CCC)c(=O)n3Cc3ccccc3)c2n1C | 139 to 140 °C |
| O=C(Nc1ccc2cc(CN3CCCC3)cnc2c1F)c1ccc(-c2ccc(F)cc2)cc1 | 178 °C |
| CC(C)Oc1cccc(CC(=O)OCc2c(-c3ccccc3)c3cc(Cl)ccc3c(=O)n2C)c1 | 130 to 132 °C |
| COC(=O)c1ccc(C(=O)NS(=O)(=O)c2ccc(CCNC(=O)CC(C)C)cc2)cn1 | 176 to 178 °C |
| CCCC(=O)OC1=C(c2ccc(OC)cc2)S(=O)c2ccccc2-n2cccc21 (stereo unspecified) | 113 to 115 °C |
| N=C(Nc1ccc(OCCNCc2ccccc2)cc1F)c1cccs1 | 105 to 107 °C |
